# Measured values published in patent US20130142868A1 (priority 2010, published 2013).
# Read-outs that look alike come from different tables or passages of the source.
# Columns and labels:
# [1] = test system: A549 human lung cancer cells; experiment: Alamar Blue cell viability assay, A549; type: cell-based; settings: 72 h, 3 days incubation
# Procedure: HUVEC, LLC-PK1, and A549 lung cancer cells were purchased from ATCC. LLC-PK1 cells were cultured in DMEM supplemented with 10% FBS and antibiotics (100 U/mL penicillin G and 0.1 mg/mL streptomycin). HUVEC cells were cultured in F12-K media supplemented with 100 ug/ml endothelial cell growth supplement (BD Biosciences, Franklin Lakes, N.J.), 10% FBS, and antibiotics. A549 human lung cancer cells were cultured in F12-K media with 10% FBS and antibiotics. All cells were grown at 37° C. in a 5% CO2/95% air humidified atmosphere.
# Cell viability experiments were performed using the Alamar Blue dye reduction assay (Invitrogen, Carlsbad, Calif.). The experimental cell lines were plated at 1.0×10^4 cells/well in 96-well plates in recommended media and allowed to adhere overnight. The next day, cells were incubated with liposomes or free CCNU, with drug concentrations from 2.5 to 100 μM. Cells were also incubated with empty RGD-expressed and non-targeted liposomes. The control cells were only incubated in the recommended media. All experiments were performed in quadruplicate. Incubations were allowed to carry out for 3 days. […] Next, the wells were analyzed with a fluorescence plate reader with absorption and emission of 485/535 nm. All cell viability results are expressed as a percentage of viable cells compared to control cells.
# [2] = rat, in vivo
# [3] = in vivo; cited from earlier work
# rats = settings: rat, in vivo
smiles,measurement,setting,value
"O=NN(CCCl)C(=O)NC1CCCCC1 [Free Drug, 1-(2-chloroethyl)-3-cyclohexyl-1-nitroso-urea]",IC50,"[1]; after aerosolization, read-out: IC50 values, post-aerosolization",70.5 ± 2.97 µM
same,IC50,"[1]; before aerosolization, read-out: IC50 values, pre-aerosolization",68.7 ± 2.48 µM
OC[C@@H](O)[C@@H](O)[C@H](O)[C@H](O)CO [mannitol],concentration at olfactory bulbs,"[2]; Sprague-Dawley, 30 min",about 2 nmol/g
same,"concentration in the brain's cortex, brain stem and spine","[2]; Sprague-Dawley, 30 min",0.2 to 0.4 nmol/g
same,"cortex concentration, increase POD compared to IV","[2]; Sprague-Dawley, 30 min",8.69 fold
same,"cortex concentration, increase POD compared to nose drops","[2]; Sprague-Dawley, 30 min",11.6 fold
same,"olfactory bulb concentration, increase POD compared to IV","[2]; Sprague-Dawley, 30 min",53.1 fold
same,"olfactory bulb concentration, increase POD compared to nose drops","[2]; Sprague-Dawley, 30 min",25.6 fold
same,"olfactory bulb concentration, increase POD compared to IV","[2]; Sprague-Dawley, 150 min",40.0 fold
same,"olfactory bulb concentration, increase POD compared to nose drops","[2]; Sprague-Dawley, 150 min",22.1 fold
same,"concentration in the brain's cortex, brain stem and spine","[2]; Sprague-Dawley, iv, 30 min",less than 0.02 nmol/g
same,"blood normalized olfactory bulb concentration, POD compared to nose drops",[2]; 30 min,18.6 fold
same,"brain-to-blood ratio (average of all brain tissues), increase POD compared to nose drops",[2]; 30 min,3.4 fold
same,half life,[3],1.67 h
CN1CC[C@]23c4c5ccc(O)c4O[C@H]2[C@@H](O)C=C[C@H]3[C@H]1C5 [morphine],DTP % after POD administration,rats,38-55%
same,"DTP % after nose drops, depending on the dose",rats,0-10%
Cc1c(O)cccc1C(=O)N[C@@H](CSc1ccccc1)[C@H](O)CN1C[C@H]2CCCC[C@H]2C[C@H]1C(=O)NC(C)(C)C [nelfinavir],"blood concentration, nose drop administration relative to POD administration","[2]; Sprague-Dawley, 30 min",3.2 times higher
same,"cortex concentration, increase POD compared to nose drops","[2]; Sprague-Dawley, 30 min",4.05 fold
same,"olfactory bulb concentration, increase POD compared to nose drops","[2]; Sprague-Dawley, 30 min",1.91 fold
same,"blood normalized olfactory bulb concentration, POD compared to nose drops",[2]; 30 min,3.6 fold
same,"brain-to-blood ratio (average of all brain tissues), increase POD compared to nose drops",[2]; 30 min,2.1 fold
same,"cortex concentration, increase POD compared to nose drops",[2]; 30 min,4.0 fold
same,"olfactory bulb concentration, increase POD compared to nose drops",[2]; 30 min,1.4 fold
